Assay results: patent publication US4732969A, “Des-19-leucine, 20-glutamine-calcitonin” (Armour Pharmaceutical Corporation, priority 1986, dated 1988)
Where a SMILES comes first, the peptide text is derived from it. Bridges are numbered along the chain shown (N, C = ends).

Key:
[1] = system: serum calcium concentration
Procedure: Biological Assay Of Calcitonin Analogs In Vivo
Rats were divided into four groups of seven animals, and each group was assigned at random to a dose of standard or test solution. Low and high doses were chosen from the linear portion of the dose-response curve. For the salmon calcitonin standard, the values were 0.7 and 2.1 ng. peptide/100 g. body weight (BW). This dose approximates 3 and 9 MU/100 g. BW. Peptides were given by subcutaneous injection (0.2 ml/100 g. BW) and blood was withdrawn 1 hour later for serum calcium determination. Sera are processed and analyzed within two hours of collection. Results were analyzed within two hours of collection.

[2] = literature value, Experientia 32(9), 1104-1106 (1976); cited from earlier work

Row | Molecule | hypocalcemic potency [2] | also measured
1 | CC(C)C[C@H](NC(=O)[C@H](CCCCN)NC(=O)CNC(=O)[C@H](CC(C)C)NC(=O)[C@@H](NC(=O)[C@@H]1CSSC[C@H](N)C(=O)N[C@@H](CO)C(=O)N[C@@H](CC(N)=O)C(=O)N[C@@H](CC(C)C)C(=O)N[C@@H](CO)C(=O)N[C@@H]([C@@H](C)O)C(=O)N1)C(C)C)C(=O)N[C@@H](CO)C(=O)N[C@@H](CCC(N)=O)C(=O)N[C@@H](CCC(=O)O)C(=O)N[C@@H](CC(C)C)C(=O)N[C@@H](Cc1c[nH]cn1)C(=O)N[C@@H](CCCCN)C(=O)N[C@@H](CC(C)C)C(=O)N[C@@H](CCC(N)=O)C(=O)N[C@H](C(=O)N[C@@H](Cc1ccc(O)cc1)C(=O)N1CCC[C@H]1C(=O)N[C@@H](CCCNC(=N)N)C(=O)N[C@H](C(=O)N[C@@H](CC(N)=O)C(=O)N[C@H](C(=O)NCC(=O)N[C@@H](CO)C(=O)NCC(=O)N[C@H](C(=O)N1CCC[C@H]1C(N)=O)[C@@H](C)O)[C@@H](C)O)[C@@H](C)O)[C@@H](C)O [standard salmon calcitonin, salmon calcitonin] | – | potency content of the standard ([1]; standard used in the assay, independently determined): greater than 4,000 IU/mg
2 | (1,7-α-L-aminosuberic acid)eel calcitonin | about 3400 IU/mg | –
3 | CC(C)C[C@H](NC(=O)[C@H](CCCCN)NC(=O)CNC(=O)[C@H](CC(C)C)NC(=O)[C@@H](NC(=O)[C@@H]1CSSC[C@H](N)C(=O)N[C@@H](CO)C(=O)N[C@@H](CC(N)=O)C(=O)N[C@@H](CC(C)C)C(=O)N[C@@H](CO)C(=O)N[C@@H]([C@@H](C)O)C(=O)N1)C(C)C)C(=O)N[C@@H](CO)C(=O)N[C@@H](CCC(N)=O)C(=O)N[C@@H](CCC(=O)O)C(=O)N[C@@H](CC(C)C)C(=O)N[C@@H](Cc1c[nH]cn1)C(=O)N[C@@H](CCCCN)C(=O)N[C@H](C(=O)N[C@@H](Cc1ccc(O)cc1)C(=O)N1CCC[C@H]1C(=O)N[C@@H](CCCNC(=N)N)C(=O)N[C@H](C(=O)N[C@@H](CC(N)=O)C(=O)N[C@H](C(=O)NCC(=O)N[C@@H](CO)C(=O)NCC(=O)N[C@H](C(=O)N1CCC[C@H]1C(N)=O)[C@@H](C)O)[C@@H](C)O)[C@@H](C)O)[C@@H](C)O [des-Leu^19 -Gln^20 -SCT, des-19-leucine, 20-glutamine-salmon calcitonin] (H-CSNLSTCVLGKLSQELHKTYPRTNTGSGTP-NH2; disulfide 1-7) | – | biological potency ([1]; rat, in vivo, sc): 6900 IU/mg
4 | eel calcitonin [synthetic eel calcitonin] | around 4300 IU/mg | –
